pIC50, pKi: −log10 of the molar value.
Experiments:
[1] = target: T1, C-X-C chemokine receptor type 2 (Homo sapiens, UniProt P25025); assay: Displacement of IL8 from CXCR2 receptor
T1 sequence (P25025 whole entry): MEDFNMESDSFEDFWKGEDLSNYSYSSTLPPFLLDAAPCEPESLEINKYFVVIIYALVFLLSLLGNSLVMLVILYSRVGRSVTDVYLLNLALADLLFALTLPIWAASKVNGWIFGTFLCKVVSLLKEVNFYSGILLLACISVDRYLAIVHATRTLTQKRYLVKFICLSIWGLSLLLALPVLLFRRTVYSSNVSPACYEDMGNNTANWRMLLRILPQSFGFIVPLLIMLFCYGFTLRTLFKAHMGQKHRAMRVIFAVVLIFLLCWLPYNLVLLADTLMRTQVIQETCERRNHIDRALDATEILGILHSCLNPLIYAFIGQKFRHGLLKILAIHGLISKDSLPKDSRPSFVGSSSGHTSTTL

[2] = target: T2, C-X-C chemokine receptor type 1 (Homo sapiens, UniProt P25024); assay: Displacement of IL8 from CXCR1 receptor
T2 sequence (P25024 whole entry): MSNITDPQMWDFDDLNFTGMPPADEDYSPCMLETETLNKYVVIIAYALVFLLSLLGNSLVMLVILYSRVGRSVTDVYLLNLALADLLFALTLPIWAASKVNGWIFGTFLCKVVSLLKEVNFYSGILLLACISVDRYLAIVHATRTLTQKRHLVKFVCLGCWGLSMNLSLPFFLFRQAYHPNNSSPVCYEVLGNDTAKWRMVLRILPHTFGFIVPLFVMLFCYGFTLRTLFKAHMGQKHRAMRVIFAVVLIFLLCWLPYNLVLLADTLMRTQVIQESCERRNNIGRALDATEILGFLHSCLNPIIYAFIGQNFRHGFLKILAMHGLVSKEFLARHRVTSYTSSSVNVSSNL

[3] = target: T2, C-X-C chemokine receptor type 1; assay: Displacement of [125I]CXCL8 from CXCR1 receptor in human PMN assessed as myeloperoxidase release
[4] = target: T1, C-X-C chemokine receptor type 2; assay: Displacement of [125I]CXCL1 from CXCR2 receptor in human PMN assessed as myeloperoxidase release

| Structure (SMILES) | pKi [1] | pKi [2] | pIC50 [3] | pIC50 [4] |
| --- | --- | --- | --- | --- |
| Cc1ccc([C@H](Nc2nsnc2Nc2cccc(C(=O)N3CCOCC3)c2O)C(C)(C)C)o1 | 5.90 | – | – | – |
| CN(C)C(=O)c1cccc(Nc2nsnc2NC(c2ccccc2)C(F)(F)F)c1O (stereo not drawn) | 5.37 | 7.44 | – | – |
| Cc1ccc([C@H](Nc2nsnc2Nc2cccc(C(=O)N(C)C)c2O)C(C)C)o1 | 5.62 | 7.82 | 5.41 | 7.44 |
| CC[C@@H](Nc1nsnc1Nc1cccc(C(=O)N(C)C)c1O)c1ccccc1 | 5.29 | – | – | – |
| Cc1ccc([C@H](Nc2nsnc2Nc2cccc(C(=O)N(C)CCC#N)c2O)C(C)(C)C)o1 | 6.94 | 7.89 | – | – |
| CC[C@@H](Nc1nsnc1Nc1cccc(C(=O)N(C)C)c1O)c1cc(C)co1 | 5.64 | – | – | – |
| CN(C)C(=O)c1cccc(Nc2nsnc2N[C@@H](c2ccc3c(c2)CCC3)C(C)(C)C)c1O | 5.00 | – | – | – |
| CN(C)C(=O)c1cccc(Nc2nsnc2N[C@@H](c2cc3ccccc3o2)C(C)(C)C)c1O | 5.63 | – | – | – |
| CN(C)C(=O)c1cccc(Nc2nsnc2N[C@@H](c2ccco2)C(C)(C)C)c1O | 6.42 | – | – | – |
| Cc1ccc([C@H](Nc2nsnc2Nc2ccc(C(F)(F)F)c(C(=O)N(C)C)c2O)C(C)(C)C)o1 | 6.77 | 7.42 | – | – |
| C[C@H](Nc1nsnc1Nc1cccc(C(=O)N(C)C)c1O)C(C)(C)C | 5.00 | – | – | – |
| Cc1ccc([C@H](Nc2nsnc2Nc2cccc(C(=O)N(C)C)c2O)C(C)(C)C)o1 | 7.04 | – | – | 7.68 |
| Cc1ccc([C@H](Nc2nsnc2Nc2cccc(C(=O)N(C)C)c2O)C(C)C)s1 | 5.89 | – | – | – |
| CN(C)C(=O)c1cccc(Nc2nsnc2N[C@@H](c2ccc3c(c2)OCCO3)C(C)(C)C)c1O | 5.00 | – | – | – |
| CC[C@@H](Nc1nsnc1Nc1cccc(C(=O)N(C)C)c1O)c1ccc(C)o1 | 5.52 | – | – | – |
| CC[C@@H](Nc1nsnc1Nc1ccc(C(F)(F)F)c(C(=O)N(C)C)c1O)c1ccc(C)o1 | 6.13 | – | – | – |
| CN(C)C(=O)c1cccc(Nc2nsnc2N[C@@H](c2cccc(F)c2)C(C)(C)C)c1O | 5.89 | 7.11 | – | – |
| CN(C)C(=O)c1cccc(Nc2nsnc2N[C@@H](c2ccccc2)C2CC2)c1O | 5.69 | – | – | – |
| Cc1ccc([C@H](Nc2nsnc2Nc2cccc(C(=O)N(C)C)c2O)C(F)(F)F)o1 | 5.00 | 7.28 | – | – |
| CN(CCC#N)C(=O)c1cccc(Nc2nsnc2N[C@@H](c2ccco2)C(C)(C)C)c1O | 7.36 | – | – | – |
| CC(C)c1coc([C@H](Nc2nsnc2Nc2cccc(C(=O)N(C)CCC#N)c2O)C(C)(C)C)c1 | 7.10 | – | – | – |
| CN(C)C(=O)c1cccc(Nc2nsnc2N[C@@H](c2ccc3c(c2)OCO3)C(C)(C)C)c1O | 6.48 | 7.28 | – | – |
| CC[C@@H](Nc1nsnc1Nc1cccc(C(=O)N(C)C)c1O)c1cc(F)cc(F)c1 | 5.39 | – | – | – |

Reference: ChEMBL document CHEMBL1153271, “3,4-Diamino-1,2,5-thiadiazole as potent and selective CXCR2 antagonists” (Bioorg Med Chem Lett, 2009)
